Consider 20 compounds from patent US6613781B2, “Heterocyclylaklylindole or -azaindole compounds as 5-hydroxytryptamine-6 ligands” (Wyeth, priority 2000, dated 2003).

Data set [1] has as its target T1, human cloned 5-HT6 receptors (Homo sapiens, UniProt P50406).
T1 construct: expressed in transfected cells; host or cells: Hela cells
The data set can be described thus: Comparative evaluation of 5-HT6 binding affinity ([3H]-LSD displacement, Hela cell membranes). The procedure:
The affinity of test compounds for the serotonin 5-HT6 receptor is evaluated in the following manner. Cultured Hela cells expressing human cloned 5-HT6 receptors are harvested and centrifuged at low speed (1,000×g) for 10.0 min to remove the culture media. The harvested cells are suspended in half volume of fresh physiological phosphate buffered saline solution and recentrifuged at the same speed. This operation is repeated. The collected cells are then homogenized in ten volumes of 50 mM Tris.HCl (pH 7.4) and 0.5 mM EDTA. The homogenate is centrifuged at 40,000×g for 30.0 min and the precipitate is collected. The obtained pellet is resuspended in 10 volumes of Tris.HCl buffer and recentrifuged at the same speed. The final pellet is suspended in a small volume of Tris.HCl buffer and the tissue protein content is determined in aliquots of 10-25 μl volumes. Bovine Serum Albumin is used as the standard in the protein determination according to the method described in Lowry et al., J. Biol. Chem., 193:265 (1951). The volume of the suspended cell membranes is adjusted to give a tissue protein concentration of 1.0 mg/ml of suspension. The prepared membrane suspension (10 times concentrated) is aliquoted in 1.0 ml volumes and stored at −70° C. until used in subsequent binding experiments.
Binding experiments are performed in a 96 well microtiter plate format, in a total volume of 200 μl. […] The test compounds are added in 20.0 μl volume.
The reaction is allowed to proceed in the dark for 120 min at room temperature, at which time, the bound ligand-receptor complex is filtered off on a 96 well unifilter with a Packard Filtermate® 196 Harvester. The bound complex caught on the filter disk is allowed to air dry and the radioactivity is measured in a Packard TopCount® equipped with six photomultiplier detectors, after the addition of 40.0 μl Microscint®-20 scintillant to each shallow well. The unifilter plate is heat-sealed and counted in a PackardTopCount® with a tritium efficiency of 31.0%.
Binding in the presence of varying concentrations of test compound is expressed as a percentage of specific binding in the absence of test compound. The results are plotted as log % bound versus log concentration of test compound. […] A linear regression line of data points is plotted, from which the IC50 value is determined and the Ki value is determined based upon the following equation: […]
where L is the concentration of the radioactive ligand used and KD is the dissociation constant of the ligand for the receptor, both expressed in nM.

Setting [2] is: [3H]-LSD 3.0 nM, membranes of Hela cells expressing human cloned 5-HT6 receptors, 120 min, room temperature, read-out: 5-HT6 Binding Ki.

Where a name gives a salt, the structure may show the parent alone. Read-outs that look alike come from different tables or passages of the source.

T1 sequence (P50406 whole entry): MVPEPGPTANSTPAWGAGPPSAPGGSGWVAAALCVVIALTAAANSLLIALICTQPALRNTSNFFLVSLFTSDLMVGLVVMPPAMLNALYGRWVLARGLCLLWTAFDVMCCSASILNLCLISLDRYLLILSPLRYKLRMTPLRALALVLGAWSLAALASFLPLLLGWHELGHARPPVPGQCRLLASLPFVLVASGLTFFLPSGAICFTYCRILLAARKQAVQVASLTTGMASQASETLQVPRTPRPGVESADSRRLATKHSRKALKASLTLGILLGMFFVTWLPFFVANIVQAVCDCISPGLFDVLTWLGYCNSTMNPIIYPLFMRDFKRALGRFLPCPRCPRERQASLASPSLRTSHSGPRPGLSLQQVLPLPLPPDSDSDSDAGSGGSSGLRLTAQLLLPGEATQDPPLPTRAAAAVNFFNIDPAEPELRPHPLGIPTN

For orientation: Ki means the dissociation constant of the complex between target and ligand, obtained from inhibition or displacement. Compound `CC(C)C[C@H]1C(=O)N2CCC[C@H]2[C@]2(O)O[C@](NC(=O)[C@@H]3C=C4c5cccc6[nH]c(Br)c(c56)C[C@H]4N(C)C3)(C(C)C)C(=O)N12` [Bromocriptine, reference compound] showed an inhibition constant (Ki) in data set [1] of 23 nM. In the case of `Nc1ccc(S(=O)(=O)n2cc(CC3CCNCC3)c3cc(F)ccc32)cc1` [Example 7, 4-{[5-Fluoro-3-(4-piperidinylmethyl)-1H-indole-1-yl]sulfonyl}aniline], the inhibition constant Ki in data set [1] (setting [2]) is 1 nM. As for `O=S(=O)(c1ccc(Cl)s1)n1cc(CC2CCNCC2)c2ccc(F)cc21` [Example 25, 6-flouro-1-(5-chlorothien-2-ylsulfonyl)-3-(4-piperidinylmethyl)-1H-indole], the inhibition constant Ki in data set [1] (setting [2]) turned out to be 18 nM. The same measure, in the same setting: next, `Nc1ccc(S(=O)(=O)n2cc(CC3CCNCC3)c3ccc(F)cc32)cc1` [Example 28]: 3 nM. Take `CN1CCN(C2=Nc3ccccc3Oc3ccc(Cl)cc32)CC1` [Loxapine, reference compound]: the Ki in data set [1] (setting [2]) came to 41.4 nM. Consider `O=S(=O)(c1ccccc1Cl)n1cc(CC2CCNCC2)c2ccc(F)cc21` [Example 24, 6-flouro-1-(2-chlorophenylsulfonyl)-3-(4-piperidinylmethyl)-1H-indole], for which, in data set [1] (setting [2]), the Ki was determined as 13 nM. As to `O=S(=O)(c1cccc2ccccc12)n1cc(CC2CCNCC2)c2cc(F)ccc21` [Example 10, 5-Fluoro-1-(1-naphthylsulfonyl)-3-(4-piperidinylmethyl)-1H-indole hydrochloride], the Ki in data set [1] (setting [2]) amounted to 13 nM. In general, melting point refers to the temperature, or range, at which the solid turns liquid. As for `COc1ccc(S(=O)(=O)n2cc(CC3CCNCC3)c3cc(F)ccc32)cc1OC` (as salt: hydrochloride) [Example 18, 1-[(3,4-dimethoxyphenyl)sulfonyl]-5-fluoro-3-(piperidin-4-ylmethyl)-1H-indole], the melting point is 246 °C. On to `O=S(=O)(c1ccccc1F)n1cc(CC2CCNCC2)c2ccc(F)cc21` [Example 26, 6-flouro-1-(2-fluorophenylsulfonyl)-3-(4-piperidinylmethyl)-1H-indole], for which the Ki in data set [1] (setting [2]) came out at 17 nM. The compound `O=S(=O)(c1cccc2cccnc12)n1cc(CC2CCNCC2)c2cc(F)ccc21` (as salt: hydrochloride) [Example 20, 8-{[5-fluoro-3-(piperidin-4-ylmethyl)-1H-indol-1-yl]sulfonyl}quinoline] gave a melting point of 245 °C. Still for that read-out and setting: as for `N#Cc1ccc(S(=O)(=O)n2cc(CC3CCNCC3)c3cc(F)ccc32)cc1` (as salt: hydrochloride) [Example 19, 4-{[5-fluoro-3-(piperidin-4-ylmethyl)-1H-indol-1-yl]sulfonyl}benzonitrile], the figure is 249 °C. For the compound `O=S(=O)(c1cccc(F)c1)n1cc(CC2CCNCC2)c2ccc(F)cc21` [Example 27, 6-flouro-1-(3-fluorophenylsulfonyl)-3-(4-piperidinylmethyl)-1H-indole], the inhibition constant Ki in data set [1] (setting [2]) turned out to be 29 nM. Consider `N#Cc1ccc(S(=O)(=O)n2cc(CC3CCNCC3)c3cc(F)ccc32)cc1` [Example 19, 4-{[5-fluoro-3-(piperidin-4-ylmethyl)-1H-indol-1-yl]sulfonyl}benzonitrile], for which the Ki in data set [1] (setting [2]) stood at 162 nM. Turning to `O=S(=O)(c1ccccc1)n1cc(CC2CCNCC2)c2ccc(F)cc21` [Example 21, 6-flouro-1-(phenylsulfonyl)-3-(4-piperidinylmethyl)-1H-indole], the Ki in data set [1] (setting [2]) worked out at 13 nM. Consider `O=S(=O)(c1ccccc1)n1cc(CC2CCNCC2)c2cc(F)ccc21` [Example 6, 5-Fluoro-1-phenylsulfonyl)-3-(4-piperidinylmethyl)-1H-indole hydrochloride], for which the Ki in data set [1] (setting [2]) is 12 nM. The same measure, in the same setting: as for `O=S(=O)(c1cccc2cccnc12)n1cc(CC2CCNCC2)c2cc(F)ccc21` [Example 20, 8-{[5-fluoro-3-(piperidin-4-ylmethyl)-1H-indol-1-yl]sulfonyl}quinoline], the figure is 2 nM; as for `COc1ccc(S(=O)(=O)n2cc(CC3CCNCC3)c3ccc(F)cc32)cc1OC` [Example 23, 6-flouro-1-(3,4-dimethoxyphenylsulfonyl)-3-(4-piperidinylmethyl)-1H-indole], 19 nM. On the same count and under the same terms, next, `COc1ccc(S(=O)(=O)n2cc(CC3CCNCC3)c3cc(F)ccc32)cc1OC` [Example 18, 1-[(3,4-dimethoxyphenyl)sulfonyl]-5-fluoro-3-(piperidin-4-ylmethyl)-1H-indole]: 8 nM. As to `Nc1ccc(S(=O)(=O)n2cc(CC3CCNCC3)c3ccc(F)cc32)cc1` (as salt: hydrochloride) [Example 28], the melting point fell in the range of 198 to 200 °C. Take `O=S(=O)(c1cccc2ccccc12)n1cc(CC2CCNCC2)c2ccc(F)cc21` [Example 22, 6-flouro-1-(1-naphthylsulfonyl)-3-(4-piperidinylmethyl)-1H-indole]: in data set [1] (setting [2]), the inhibitory constant (Ki) came out at 24 nM.
